From US8263606B2 (Xenon Pharmaceuticals Inc., priority 2008, dated 2012)
Counter-ions that a name gives are not always drawn.

Columns and labels:
[1] = molecular target: CYP3A4 (Homo sapiens, UniProt P08684); assay: Cytochrome P450 (CYP450) Inhibition Assay, CYP3A4 (Vivid fluorescence, BOMCC substrate); settings: human, P450 Baculosomes (recombinant CYP3A4), probe BOMCC (Vivid substrate)
Sequence of CYP3A4 (P08684 whole entry): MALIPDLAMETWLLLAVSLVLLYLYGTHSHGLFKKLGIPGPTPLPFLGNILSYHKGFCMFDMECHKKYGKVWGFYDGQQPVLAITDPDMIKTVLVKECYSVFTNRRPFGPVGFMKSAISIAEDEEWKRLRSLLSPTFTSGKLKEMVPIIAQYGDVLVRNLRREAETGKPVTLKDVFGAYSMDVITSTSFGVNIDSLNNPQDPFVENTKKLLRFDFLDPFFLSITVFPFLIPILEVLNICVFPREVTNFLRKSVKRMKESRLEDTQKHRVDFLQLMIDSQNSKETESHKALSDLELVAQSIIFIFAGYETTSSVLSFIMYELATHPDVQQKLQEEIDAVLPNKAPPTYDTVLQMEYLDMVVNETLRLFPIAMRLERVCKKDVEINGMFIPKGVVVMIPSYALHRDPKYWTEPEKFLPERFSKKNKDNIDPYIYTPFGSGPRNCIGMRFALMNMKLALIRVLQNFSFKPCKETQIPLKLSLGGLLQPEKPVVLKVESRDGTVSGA

O=C1Nc2cccc(-c3ccoc3)c2[C@@]12COc1cc3c(cc12)OCO3 [Example 16.66, (7R)-4′-furan-3-ylspiro[furo[2,3-f][1,3]benzodioxole-7,3′-indol]-2′(1′H)-one]
melting point: 229 to 231 °C
inhibition at 10 µM [1]: > 50%

CN1C(=O)C2(COc3cc4c(cc32)OCO4)c2c(C3CCOC3)cccc21 (centres unmarked) [Example 16.73, 1′-methyl-4′-(tetrahydrofuran-3-yl)spiro[furo[2,3-f][1,3]benzodioxole-7,3′-indol]-2′(1′H)-one]
melting point: 182 to 184 °C
inhibition at 10 µM [1]: > 50%

O=C1Nc2cccc(O)c2C12COc1cc3c(cc12)OCCO3 (centres unmarked) [Example 16.51, 4′-hydroxy-2,3-dihydrospiro[furo[2,3-g][1,4]benzodioxine-8,3′-indol]-2′(1′H)-one]
melting point: > 250 °C
inhibition at 10 µM [1]: < 50%

CN1C(=O)C2(COc3cc4c(cc32)OCCO4)c2c(-c3cnn(C)c3)cccc21 (centres unmarked) [Example 16.70, 1′-methyl-4′-(1-methyl-1H-pyrazol-4-yl)-2,3-dihydrospiro[furo[2,3-g][1,4]benzodioxine-8,3′-indol]-2′(1′H)-one]
melting point: 220 to 222 °C
inhibition at 10 µM [1]: < 50%

CN1C(=O)C2(COc3cc4c(cc32)OCCO4)c2c(C#N)cccc21 (centres unmarked) [Example 16.71, 1′-methyl-2′-oxo-1′,2,2′,3-tetrahydrospiro[furo[2,3-g][1,4]benzodioxine-8,3′-indole]-4′-carbonitrile]
melting point: 196 to 197 °C
inhibition at 10 µM [1]: < 50%

O=C1N(Cc2nccnc2C(F)(F)F)c2ccccc2C12COc1cc3c(cc12)OCCO3 (centres unmarked) [Example 5.11, 1′-{[3-(trifluoromethyl)pyrazin-2-yl]methyl}-2,3-dihydrospiro[furo[2,3-g][1,4]benzodioxine-8,3′-indol]-2′(1′H)-one]
melting point: 230 to 232 °C
inhibition at 10 µM [1]: < 50%

O=C1N(Cc2cccc(C(F)(F)F)n2)c2ccccc2C12COc1cc3c(cc12)OCCO3 (centres unmarked) [Example 5.9, 1′-{[6-(trifluoromethyl)pyridin-2-yl]methyl}-2,3-dihydrospiro[furo[2,3-g][1,4]benzodioxine-8,3′-indol]-2′(1′H)-one]
melting point: 195 to 196 °C
inhibition at 10 µM [1]: > 50%

CN1C(=O)C2(COc3cc4c(cc32)OCCO4)c2c(NC(=O)C3CC3)cccc21 (centres unmarked) [Example 16.26, N-(1′-methyl-2′-oxo-1′,2,2′,3-tetrahydrospiro[furo[2,3-g][1,4]benzodioxine-8,3′-indol]-4′-yl)cyclopropanecarboxamide]
melting point: 266 to 268 °C
inhibition at 10 µM [1]: < 50%

CN1C(=O)[C@]2(COc3cc4c(cc32)OCO4)c2c(Br)cccc21 [Example 16.64, (7S)-4′-bromo-1′-methylspiro[furo[2,3-f][1,3]benzodioxole-7,3′-indol]-2′(1′H)-one]
melting point: 226 to 227 °C
inhibition at 10 µM [1]: > 50%

CN1C(=O)C2(COc3cc4c(cc32)OCCO4)c2c(NS(C)(=O)=O)cccc21 (centres unmarked) [Example 16.22, N-(1′-methyl-2′-oxo-1′,2,2′,3-tetrahydrospiro[furo[2,3-g][1,4]benzodioxine-8,3′-indol]-4′-yl)methanesulfonamide]
melting point: 184 to 186 °C
inhibition at 10 µM [1]: < 50%

CC(=O)Nc1cccc2c1C1(COc3cc4c(cc31)OCCO4)C(=O)N2C (centres unmarked) [Example 16.25, N-(1′-methyl-2′-oxo-1′,2,2′,3-tetrahydrospiro[furo[2,3-g][1,4]benzodioxine-8,3′-indol]-4′-yl)acetamide]
melting point: 182 to 184 °C
inhibition at 10 µM [1]: < 50%

CN1C(=O)C2(COc3cc4c(cc32)OCCO4)c2c(Oc3ncccc3C(F)(F)F)cccc21 (centres unmarked) [Example 16.55, 1′-methyl-4′-{[3-(trifluoromethyl)pyridin-2-yl]oxy}-2,3-dihydrospiro[furo[2,3-g][1,4]benzodioxine-8,3′-indol]-2′(1′H)-one]
melting point: > 250 °C
inhibition at 10 µM [1]: > 50%

CN1C(=O)C2(COc3cc4c(cc32)OCCO4)c2c(-c3ccc4ccc(=O)oc4c3)cccc21 (centres unmarked) [Example 16.15, 1′-methyl-4′-(2-oxo-2H-chromen-7-yl)-2,3-dihydrospiro[furo[2,3-g][1,4]benzodioxine-8,3′-indol]-2′(1′H)-one]
melting point: 228 to 229 °C
inhibition at 10 µM [1]: > 50%

COCCOCC(=O)Nc1cccc2c1C1(COc3cc4c(cc31)OCCO4)C(=O)N2C (centres unmarked) [Example 16.34, 2-(2-methoxyethoxy)-N-(1′-methyl-2′-oxo-1′,2,2′,3-tetrahydrospiro[furo[2,3-g][1,4]benzodioxine-8,3′-indol]-4′-yl)acetamide]
melting point: 122 to 123 °C
inhibition at 10 µM [1]: < 50%

Cc1noc2cc3c(cc12)C1(CO3)C(=O)N(Cc2nc(C(=O)N(C)C)co2)c2ccccc21 (centres unmarked) [Example 13.9, N,N-dimethyl-2-[(3-methyl-2′-oxospiro[furo[3,2-f][1,2]benzisoxazole-5,3′-indol]-1′(2′H)-yl)methyl]-1,3-oxazole-4-carboxamide]
melting point: 87 to 89 °C

CC(C)NC(=O)N1CCC(CN2C(=O)C3(COc4cc5c(cc43)CCO5)c3ccccc32)C1 (centres unmarked) [Example 11.62, N-(1-methylethyl)-3-[(2′-oxo-5,6-dihydrospiro[benzo[1,2-b:5,4-b′]difuran-3,3′-indol]-1′(2′H)-yl)methyl]pyrrolidine-1-carboxamide]
melting point: 107 to 115 °C

O=C1N(C(c2ccccc2)c2ccccc2)c2ccc(F)cc2C12COc1cc3c(cc12)CCO3 (centres unmarked) [Example 2.4, 1′-(diphenylmethyl)-5′-fluoro-5,6-dihydrospiro[benzo[1,2-b:5,4-b′]difuran-3,3′-indol]-2′(1′H)-one]
melting point: 228 to 229 °C

O=C1N(C[C@@H]2CCCN2)c2ccccc2C12COc1cc3c(cc12)CCO3 (stereo partly drawn) [Example 11.11, 1′-[(2S)-pyrrolidin-2-ylmethyl]-5,6-dihydrospiro[benzo[1,2-b:5,4-b′]difuran-3,3′-indol]-2′(1′H)-one]
melting point: 83 to 86 °C

CN1CCC(CN2C(=O)C3(COc4cc(F)c(F)cc43)c3ccccc32)CC1 (centres unmarked) (as salt: hydrochloride) [Example 11.112, 5,6-difluoro-1′-[(1-methylpiperidin-4-yl)methyl]spiro[1-benzofuran-3,3′-indol]-2′(1′H)-one hydrochloride]
melting point: 162 to 164 °C

O=C1Nc2ccccc2C12COc1ccc3c(c12)OCCO3 (centres unmarked) [Example 3.43, 2,3-dihydrospiro[furo[3,2-f][1,4]benzodioxine-9,3′-indol]-2′(1′H)-one]
melting point: 259 to 261 °C

CN1CCN(CN2C(=O)C3(COc4cc5c(cc43)CCO5)c3ccccc32)CC1 (centres unmarked) (as salt: hydrochloride)
melting point: 181 °C (dec.)

Nc1cc(-c2ccc(CN3C(=O)C4(COc5cc6c(cc54)OCCO6)c4ccccc43)cc2)[nH]n1 (centres unmarked) (as salt: hydrochloride) [Example 29.2, 1′-[4-(3-amino-1H-pyrazol-5-yl)benzyl]-2,3-dihydrospiro[furo[2,3-g][1,4]benzodioxine-8,3′-indol]-2′(1′H)-one hydrochloride]
melting point: 198 to 201 °C

CN1CCN(CN2C(=O)C3(COc4cc5c(cc43)OCO5)c3ccccc32)CC1 (centres unmarked) (as salt: chloride) [Example 11.63, 1′-[(4-methylpiperazin-1-yl)methyl]spiro[furo[2,3-f][1,3]benzodioxole-7,3′-indol]-2′(1′H)-one hydrogen chloride]
melting point: > 175 °C (dec.)

O=C1N(C(c2ccccc2)c2ccccc2)c2cc(F)ccc2C12COc1cc3c(cc12)CCO3 (centres unmarked) [Example 2.5, 1′-(diphenylmethyl)-6′-fluoro-5,6-dihydrospiro[benzo[1,2-b:5,4-b′]difuran-3,3′-indol]-2′(1′H)-one]
melting point: 194 to 196 °C

CCCCCN1C(=O)[C@@]2(COc3cc4c(cc32)OCCO4)c2ccccc21 [Example 7.3, (S)-1-pentyl-2,3-dihydrospiro[furo[2,3-g][1,4]benzodioxine-8,3′-indol]-2′(1′H)-one]
melting point: 111 to 113 °C

CN1C(=O)C2(COc3cc4c(cc32)OCCO4)c2c(C(N)=O)cccc21 (centres unmarked) [Example 16.72, 1′-methyl-2′-oxo-1′,2,2′,3-tetrahydrospiro[furo[2,3-g][1,4]benzodioxine-8,3′-indole]-4′-carboxamide]
melting point: > 250 °C

CC(C)N1CCC(CN2C(=O)C3(COc4cc5c(cc43)CCO5)c3ccccc32)CC1.Cl (centres unmarked)
melting point: 167 °C (dec.)

N#CCN1C(=O)C2(COc3cc4c(cc32)OCCO4)c2ccccc21 (centres unmarked) [Example 5.24, (2′-oxo-2,3-dihydrospiro[furo[2,3-g][1,4]benzodioxine-8,3′-indol]-1′(2′H)-yl)acetonitrile]
melting point: 161 to 162 °C

O=C1N(Cc2ccc(Br)cc2)c2ccccc2C12COc1cc3c(cc12)OCO3 (centres unmarked) [Example 4.1, 1′-(4-bromobenzyl)spiro[furo[2,3-f][1,3]benzodioxole-7,3′-indol]-2′(1′H)-one]
melting point: 148 to 150 °C

COc1ccc(CN2C(=O)C3(COc4cc5c(cc43)OCO5)c3ccccc32)cc1 (centres unmarked) [Example 7, 1′-(4-methoxybenzyl)spiro[furo[2,3-f][1,3]benzodioxole-7,3′-indol]-2′(1′H)-one]
melting point: 147 to 148 °C

O=C1N(C(c2ccccc2)c2ccccc2)c2ccccc2C12COc1cc3c(cc12)CCCO3 (centres unmarked) [Example 2.12, 1′-(diphenylmethyl)-6,7-dihydro-5H-spiro[furo[3,2-g]chromene-3,3′-indol]-2′(1′H)-one]
melting point: 208 to 211 °C

Cc1noc2cc3c(cc12)C1(CO3)C(=O)N(Cc2ccc(-c3cc(N)n[nH]3)cc2)c2ccccc21 (centres unmarked) (as salt: hydrochloride) [Example 29.1, 1′-[4-(3-amino-1H-pyrazol-5-yl)benzyl]-3-methylspiro[furo[3,2-f][1,2]benzisoxazole-5,3′-indol]-2′(1′H)-one hydrochloride]
melting point: 191 to 195 °C

O=C(O)CN1C(=O)C2(COc3cc4c(cc32)OCCO4)c2ccccc21 (centres unmarked) [Example 11.76, (2′-oxo-2,3-dihydrospiro[furo[2,3-g][1,4]benzodioxine-8,3′-indol]-1′(2′H)-yl)acetic acid]
melting point: 193 to 196 °C
